Results on 16 compounds are retold here after ChEMBL document CHEMBL4138306, “Potent Inhibitors of Hepatitis C Virus NS3 Protease: Employment of a Difluoromethyl Group as a Hydrogen-Bond Donor” (ACS Med Chem Lett, 2018).

pEC50, pIC50: −log10 of the molar value.

A short description of data set [1]: AUC in Sprague-Dawley rat at 15 mg/kg, po administered via gavage or 5 mg/kg, iv administered as 10 mins infusion by LC/MS/MS analysis. In kind it is ADME, organism-based. As to conditions: in vivo.
Data set [2] deals with Hepatitis C virus. Description: Antiviral activity against HCV genotype 1b Con1 infected in human HuH7.5 cells assessed as inhibition of viral replication after 4 days by luciferase reporter gene assay. In kind it is functional, organism-based, Hepacivirus hominis. Conditions: isolate Con1, Huh7.5, 96 h. (Reporter assays use an easily measured gene product as a stand-in for the process of interest.)

In data set [3] the target is Hepatitis C virus serine protease, NS3/NS4A (Hepatitis C virus, UniProt A3EZI9+D2K2A8).
Chain of Hepatitis C virus serine protease, NS3/NS4A (D2K2A8 whole entry, the tested form may be a part): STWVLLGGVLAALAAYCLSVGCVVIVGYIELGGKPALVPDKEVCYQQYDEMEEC
Chain of Hepatitis C virus serine protease, NS3/NS4A (A3EZI9 whole entry, the tested form may be a part): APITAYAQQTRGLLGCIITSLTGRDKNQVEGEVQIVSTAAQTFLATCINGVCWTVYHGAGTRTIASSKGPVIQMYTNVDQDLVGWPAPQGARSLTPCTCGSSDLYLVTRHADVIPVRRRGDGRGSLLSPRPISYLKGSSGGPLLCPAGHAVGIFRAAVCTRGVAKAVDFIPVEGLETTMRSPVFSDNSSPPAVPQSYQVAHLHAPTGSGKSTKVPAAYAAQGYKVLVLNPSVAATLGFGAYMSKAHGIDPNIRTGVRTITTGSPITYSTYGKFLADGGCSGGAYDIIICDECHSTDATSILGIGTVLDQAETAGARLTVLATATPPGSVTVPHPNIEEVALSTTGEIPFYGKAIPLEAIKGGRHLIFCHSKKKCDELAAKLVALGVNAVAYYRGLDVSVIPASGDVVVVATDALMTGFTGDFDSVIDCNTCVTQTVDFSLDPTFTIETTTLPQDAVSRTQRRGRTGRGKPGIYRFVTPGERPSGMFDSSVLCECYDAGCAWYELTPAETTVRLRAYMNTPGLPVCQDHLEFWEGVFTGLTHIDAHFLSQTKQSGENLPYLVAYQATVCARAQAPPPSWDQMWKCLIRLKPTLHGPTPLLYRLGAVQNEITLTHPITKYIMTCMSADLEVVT
Description: Inhibition of recombinant full length HCV genotype 1a NS3/4A protease (1027 to 1711 residues) expressed in Escherichia coli strain BL21 (DE3) using RET S1 as substrate incubated for 1 min followed by substrate addition measured after 15 mins by FRET assay
Data set [4] is described as follows: Elimination half life in Sprague-Dawley rat at 15 mg/kg, po administered via gavage or 5 mg/kg, iv administered as 10 mins infusion by LC/MS/MS analysis. The class given is ADME, organism-based. As to conditions: in vivo, read-out: beta t1/2 (converted).
A short description of data set [5]: Clearance in Sprague-Dawley rat at 15 mg/kg, po administered via gavage or 5 mg/kg, iv administered as 10 mins infusion by LC/MS/MS analysis. The class given is ADME, organism-based. As to conditions: in vivo.
Data set [6] in a line: Oral bioavailability in Sprague-Dawley rat at 15 mg/kg, administered via gavage by LC/MS/MS analysis. The class given is ADME, organism-based. Conditions: in vivo.
Data set [7] in a line: Drug uptake in Sprague-Dawley rat liver at 15 mg/kg, po administered via gavage by LC/MS/MS analysis. In kind it is ADME, organism-based. Conditions: in vivo, read-out: Drug uptake.
Data set [8] can be described thus: Half life in human liver microsomes by LC/MS/MS analysis. The class given is ADME, microsome. (In general: Liver microsomes are a subcellular fraction often used to study metabolism.)
The nature of data set [9]: Permeability from basolateral to apical side in human Caco2 cells. The class given is ADME, cell-based. As to conditions: Caco-2, read-out: permeability. In general terms: Caco-2 cells form a polarised layer with tight junctions and transporters.
Data set [10] in a line: Permeability from apical to basolateral side in human Caco2 cells. Conditions: Caco-2, read-out: permeability. In kind it is ADME, cell-based.

`C=C[C@@H]1C[C@]1(NC(=O)[C@@H]1C[C@@H](Oc2ncc(OC)c3ccc(Cl)cc23)CN1C(=O)[C@@H](NC(=O)OC(C)(C)C)C(C)(C)C)C(=O)NS(=O)(=O)C1CC1` registered an exposure (AUC) at 10 min in [1] of 1 µM·h.
In the case of `COc1cnc(O[C@@H]2C[C@@H](C(=O)N[C@]3(C(=O)NS(=O)(=O)C4CC4)C[C@H]3C3CC3)N(C(=O)[C@@H](NC(=O)OC(C)(C)C)C(C)(C)C)C2)c2cc(Cl)ccc12`, the negative-log EC50 (pEC50) in [2] is 7.74. The compound further showed a pIC50 in data set [3] of 8.22. Moreover, the AUC at 10 min in data set [1] was 19.6 µM·h. Moreover, in [4], the half-life was 6 to 10 h. The clearance in [5] stood at 5.2 mL/min/kg. This compound also displayed a bioavailability in data set [6] of 34 to 44.2%.
As to `CC[C@@H]1C[C@]1(NC(=O)[C@@H]1C[C@@H](Oc2ncc(OC)c3ccc(Cl)cc23)CN1C(=O)[C@@H](NC(=O)OC(C)(C)C)C(C)(C)C)C(=O)NS(=O)(=O)C1CC1`, in [2], the pEC50 was 7.80. The negative logarithm of the IC50 (pIC50) in data set [3] is 8.30. For the same compound, the concentration in [7] was 40.3 µM. Also, the AUC at 10 min in data set [1] worked out at 6.89 µM·h.
`COc1cnc(O[C@@H]2C[C@@H](C(=O)NC3(C(=O)NS(=O)(=O)C4CC4)CC3)N(C(=O)[C@@H](NC(=O)OC(C)(C)C)C(C)(C)C)C2)c2cc(Cl)ccc12`: the negative-log EC50 (pEC50) in data set [2] is 6.47. The compound also gave a pIC50 in data set [3] of 7.40. The half-life in [8] worked out at 2 h.
For `COc1cnc(O[C@@H]2C[C@@H](C(=O)N[C@@H](CC(F)F)C(=O)NS(=O)(=O)C3CC3)N(C(=O)[C@@H](NC(=O)OC(C)(C)C)C(C)(C)C)C2)c2cc(Cl)ccc12`, the negative-log EC50 (pEC50) in [2] is 6.29. The negative-log IC50 (pIC50) in data set [3] is 6.01.
Take `COc1cnc(O[C@@H]2C[C@@H](C(=O)N[C@]3(C(=O)NS(=O)(=O)C4CC4)C[C@H]3C(F)F)N(C(=O)[C@@H](NC(=O)OC(C)(C)C)C(C)(C)C)C2)c2cc(Cl)ccc12`: the pEC50 in data set [2] is 8.10 to 8.12. Also, the half-life in data set [8] was 2 h; in [4], 2.6 h. Further, the concentration in data set [7] was determined as 0.27 µM. The compound further displayed an AUC at 10 min in data set [1] of 0.05 µM·h. Moreover, in [9], the Papp B→A was 4.7 ×10⁻⁶ cm/s. In [5], this compound came in with a clearance of 58 mL/min/kg. The same compound showed a bioavailability in data set [6] of 0.9%. Besides, the Papp A→B in [10] was under 1.5 ×10⁻⁶ cm/s.
Turning to `COc1cnc(O[C@@H]2C[C@@H](C(=O)NC3(C(=O)NS(=O)(=O)C4CC4)CCC3)N(C(=O)[C@@H](NC(=O)OC(C)(C)C)C(C)(C)C)C2)c2cc(Cl)ccc12`, the pEC50 in [2] was 5.89. This compound gave a pIC50 in data set [3] of 6.58.
Regarding `CC[C@@H](NC(=O)[C@@H]1C[C@@H](Oc2ncc(OC)c3ccc(Cl)cc23)CN1C(=O)[C@@H](NC(=O)OC(C)(C)C)C(C)(C)C)C(=O)NS(=O)(=O)C1CC1`, the pEC50 in data set [2] is under 6.00. The compound further showed a negative logarithm of the IC50 (pIC50) in data set [3] of 5.10.
As for `COc1cnc(O[C@@H]2C[C@@H](C(=O)N[C@H](CC(F)F)C(=O)NS(=O)(=O)C3CC3)N(C(=O)[C@@H](NC(=O)OC(C)(C)C)C(C)(C)C)C2)c2cc(Cl)ccc12`, the pEC50 in data set [2] was under 6.00. The compound also showed a pIC50 in data set [3] of 5.61.
Consider `COc1cnc(O[C@@H]2C[C@@H](C(=O)N[C@]3(C(=O)NS(=O)(=O)C4CC4)C[C@H]3C(F)(F)F)N(C(=O)[C@@H](NC(=O)OC(C)(C)C)C(C)(C)C)C2)c2cc(Cl)ccc12`, for which the negative-log EC50 (pEC50) in data set [2] is 6.90. The compound also showed a negative-log IC50 (pIC50) in data set [3] of 7.77. For the same compound, the half-life in [8] was found to be 0.783 h.
In turn, `COc1ccc2c(O[C@@H]3C[C@@H](C(=O)NC(CC(F)F)C(=O)NS(=O)(=O)C4CC4)N(C(=O)[C@@H](NC(=O)OC(C)(C)C)C(C)(C)C)C3)cc(-c3ccccc3)nc2c1` (stereo partly drawn) showed a negative-log IC50 (pIC50) in data set [3] of under 6.00.
Turning to `COc1cnc(O[C@@H]2C[C@@H](C(=O)NC(C)(C)C(=O)NS(=O)(=O)C3CC3)N(C(=O)[C@@H](NC(=O)OC(C)(C)C)C(C)(C)C)C2)c2cc(Cl)ccc12`, the pEC50 in [2] is under 6.00. This compound also gave a negative-log IC50 (pIC50) in [3] of 5.66.
On the same counts, the results for `CC[C@H](NC(=O)[C@@H]1C[C@@H](Oc2ncc(OC)c3ccc(Cl)cc23)CN1C(=O)[C@@H](NC(=O)OC(C)(C)C)C(C)(C)C)C(=O)NS(=O)(=O)C1CC1` are under 6.00 and 5.51.
As to `C=CC[C@](C)(NC(=O)[C@@H]1C[C@@H](Oc2ncc(OC)c3ccc(Cl)cc23)CN1C(=O)[C@@H](NC(=O)OC(C)(C)C)C(C)(C)C)C(=O)NS(=O)(=O)C1CC1`, the negative logarithm of the EC50 (pEC50) in data set [2] was 4.64. Moreover, the pIC50 in [3] is 4.48. The same compound gave a half-life in data set [8] of 0.892 h.
On to `COc1cnc(O[C@@H]2C[C@@H](C(=O)N[C@]3(C(=O)NS(=O)(=O)C4CC4)C[C@H]3C)N(C(=O)[C@@H](NC(=O)OC(C)(C)C)C(C)(C)C)C2)c2cc(Cl)ccc12`, for which, in data set [2], the pEC50 is 7.19. This compound also showed a pIC50 in [3] of 7.89. The half-life in [8] stood at 1.6 h.
Take `COc1cnc(O[C@@H]2C[C@@H](C(=O)N[C@]3(C(=O)NS(=O)(=O)C4CC4)C[C@H]3CC(F)F)N(C(=O)[C@@H](NC(=O)OC(C)(C)C)C(C)(C)C)C2)c2cc(Cl)ccc12`: the pEC50 in data set [2] is 7.51. In [3], this compound showed a negative logarithm of the IC50 (pIC50) of 7.85. In data set [8], the half-life was 3.33 h.

Usually AUC stands for concentration integrated over time. The term pEC50 denotes −log10 of the EC50, conventionally taken in molar units. What is called pIC50 is the negative decadic logarithm of the IC50, by convention in mol/L. One may read the bioavailability as the share of a dose that reaches the circulation, judged against a reference dose that is usually intravenous. A higher bioavailability goes with good availability.
